Assays:
[1] = molecular target: JAK1 (recombinant purified GST-tagged catalytic domain) (Homo sapiens (Human), UniProt P23458);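 note: biochemical assay with HTRF read-out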
[2] = molecular target: JAK2 (recombinant purified GST-tagged catalytic domain) (Homo sapiens (Human), UniProt O60674);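 note: biochemical JAK kinase assay with HTRF detection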
Chain of JAK2 (recombinant purified GST-tagged catalytic domain) (O60674 849-1124): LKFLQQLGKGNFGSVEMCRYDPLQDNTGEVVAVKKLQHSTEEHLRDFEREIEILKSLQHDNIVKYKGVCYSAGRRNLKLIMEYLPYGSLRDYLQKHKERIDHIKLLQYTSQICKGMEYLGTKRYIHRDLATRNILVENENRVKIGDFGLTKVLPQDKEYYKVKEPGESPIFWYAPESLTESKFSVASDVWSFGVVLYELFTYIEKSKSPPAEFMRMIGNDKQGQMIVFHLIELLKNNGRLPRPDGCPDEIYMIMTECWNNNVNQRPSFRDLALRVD

Chain of JAK1 (recombinant purified GST-tagged catalytic domain) (P23458 875-1153): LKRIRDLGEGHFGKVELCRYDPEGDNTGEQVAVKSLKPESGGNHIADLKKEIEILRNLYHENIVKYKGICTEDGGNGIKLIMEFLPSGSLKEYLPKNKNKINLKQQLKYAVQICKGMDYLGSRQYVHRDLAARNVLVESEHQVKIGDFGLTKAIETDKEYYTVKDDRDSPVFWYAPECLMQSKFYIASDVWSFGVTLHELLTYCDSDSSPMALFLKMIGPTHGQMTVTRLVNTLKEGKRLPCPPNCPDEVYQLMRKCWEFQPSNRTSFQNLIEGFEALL

| Compound | IC50 [1] | IC50 [2] |
| --- | --- | --- |
| CN(C)[C@@H]1CC[C@H](C#N)[C@@H](n2cc(C(N)=O)c(Nc3ccc(F)cc3)n2)C1 (mixture of isomers) [Example 6-2, 1-[(1S,2S,5R and 1R,2R,5S)-2-cyano-5-(dimethylamino)cyclohexyl]-3-[(4-fluorophenyl)amino]-1H-pyrazole-4-carboxamide] | 0.305 µM | > 1.5 µM |
| N#C[C@@H]1CCC2(C[C@H]1n1cc(C(N)=O)c(Nc3ccccc3)n1)OCCO2 (single isomer, unassigned) [Example 45-3, 1-[(7R,8R or 7S,8S)-8-Cyano-1,4-dioxaspiro[4.5]dec-7-yl]-3-(phenylamino)-1H-pyrazole-4-carboxamide] | 0.147 µM | 0.308 µM |
| CC(C)(C)OC(=O)NCC1CC[C@H](C#N)[C@@H](n2cc(C(N)=O)c(Nc3ccc(F)cc3)n2)C1 (single isomer, unassigned) [Example 11-9, tert-butyl {[(1R or S 3S,4S) and (1S or R, 3R, 4R)]-3-{4-carbamoyl-3-[(4-fluorophenyl)amino]-1H-pyrazol-1-yl}-4-cyanocyclohexyl]methyl}carbamate] | 0.021 µM | 0.434 µM |
| N#C[C@H]1C[C@@H](NCC(F)F)CC[C@@H]1n1cc(C(N)=O)c(Nc2ccc(S(=O)(=O)C(F)F)cc2)n1 (single isomer, unassigned) [Example 28-126, 1-{(1S,2S,4S or 1R,2R,4R )-2-cyano-4-[(2,2-difluoroethyl)amino]cyclohexyl}-3-({4-[(difluoro-methyl)sulfonyl]phenyl}amino)-1H-pyrazole-4-carboxamide] | 0.0005 µM | 0.005 µM |

Further molecules by falling IC50 [1], results first:

| IC50 [1] | IC50 [2] | Compound |
| --- | --- | --- |
| 0.014 µM | 0.101 µM | COC(=O)[C@H]1CCC(n2cc(C(N)=O)c(Nc3ccc(F)cc3)n2)[C@@H](C#N)C1 (stereo partly shown) [Example 7-2] |
| 0.011 µM | 0.17 µM | N#C[C@H]1CC[C@@H](NCc2ccccc2)C[C@@H]1n1cc(C(N)=O)c(Nc2ccc(F)cc2)n1 (mixture of isomers) [Example 6-6, 1-{[(1S,2S,5R) and (1R,2R,5S)]-5-(benzylamino)-2-cyanocyclohexyl}-3-[(4-fluorophenyl)amino]-1H-pyrazole-4-carboxamide] |
| 0.009 µM | 0.29 µM | CC1(C)CN(C(=O)[C@@H]2CC[C@@H](n3cc(C(N)=O)c(Nc4ccc(Cl)cc4)n3)[C@H](C#N)C2)C1 (single isomer, unassigned) [Example 35-2, 3-(4-chlorophenylamino)-1-((1R,2R,4R or 1S,2S,4S)-2-cyano-4-(3,3-dimethylazetidine-1-carbonyl)cyclohexyl)-1H-pyrazole-4-carboxamide] |
| 0.007 µM | 0.038 µM | CC1CCC(C#N)C(n2cc(C(N)=O)c(Nc3ccccc3)n2)C1 (stereo not shown) [Example 11-6, 1-(2-cyano-5-methylcyclohexyl)-3-(phenylamino)-1H-pyrazole-4-carboxamide] |
| 0.004 µM | 0.028 µM | N#C[C@H]1CC(F)CC[C@@H]1n1cc(C(N)=O)c(Nc2ccccc2)n1 (mixture of isomers) [Example 22-1, 1-[(1S,2S and 1R,2R)-2-Cyano-4-fluorocyclohexyl]-3-(phenylamino)-1H-pyrazole-4-carboxamide] |
| 0.002 µM | 0.014 µM | CS(=O)(=O)N[C@H]1CC[C@H](n2cc(C(N)=O)c(Nc3ccc(F)cc3)n2)[C@@H](C#N)C1 (mixture of isomers) [Example 38-1, 1-{(1S,2S,4S and 1R,2R,4R)-2-cyano-4-[(methylsulfonyl)amino]cyclohexyl}-3-[(4-fluorophenyl)amino]-1H-pyrazole-4-carboxamide] |
| 0.001 µM | 0.035 µM | COCCN[C@H]1CCC(n2cc(C(N)=O)c(Nc3ccc(S(=O)(=O)C(F)(F)F)cc3)n2)[C@@H](C#N)C1 (stereo partly drawn) [Example 27-16, 1-{(1S,2S,4S and1R,2R,4R)-2-cyano-4-[(2-methoxyethyl)amino]cyclohexyl}-3-({4-[(trifluoromethyl)sulfonyl]phenyl)amino)-1H-pyrazole-4-carboxamide] |

Reference: patent US8962608B2, “Cycloalkylnitrile pyrazole carboxamides as janus kinase inhibitors” (Merck Sharp & Dohme Corp., priority 2011, dated 2015)
